Test results: article PMC10947015, “Constraining and Modifying Peptides Using Pd‐Mediated Cysteine Allylation” (Chembiochem, 2023)
Read-outs that look alike come from different tables or passages of the source. Starred links: 1 amine or outer side, 2 acyl side, 3 side chain; linkers in the order of their positions; H or OH if unused. Positions of bridges follow the written chain, without caps; N, C: chain ends. Non-standard residues stand in square brackets, D forms with d. Residues, ends and D or L forms follow the SMILES beside them. Groups on a side chain read outwards from the residue. *: point of attachment. X1 = O=C(CCCC[C@@H]1SC[C@@H]2NC(=O)N[C@@H]21)NCCCOCCOCCOCCCN*; Tyr(3-NO2) = N[C@@H](Cc1ccc(O)c([N+](=O)[O-])c1)C(=O)O; Glutaryl = O=C(CCCC(=O)[*:2])[*:1]; Hyp = O=C(O)[C@@H]1C[C@@H](O)CN1; X2 = C(=C/C[*:2])/C[*:1]; X3 = C(#CC[*:2])C[*:1]

Target: T1, integrin α3β1 (Homo sapiens, UniProt P05556+P26006)
T1 construct: integrin α3β1 expressed on human MDA‐MB231 cells; endogenous in cells; host or cells: MDA-MB231 (human)
Assay: Binding of stapled peptides to integrin α3β1 on MDA-MB231 cells, flow cytometry with streptavidin-PerCP-Cy5.5 staining
Description: The obtained stapled peptides P1 a–g were tested for binding to integrin α3β1 expressed on human MDA‐MB231 cells (Figure S2). Upon incubation for 30 min with different concentrations of the stapled P1 a–g variants, streptavidin‐PerCP‐Cy5.5 was added after three washing steps to allow detection by flow cytometry. Peptide P2 (P1 in its disulfide cyclized form) served as a positive control, which bound with an apparent affinity of 100 nM.[23]
Binding of stapled peptides to murine 4T1 cells and human MDA-MB231 cells
Figure S2: Determination of Kd values for peptides P1a-h based on streptavidin-PerCP-Cy5.5 staining of integrin- containing cells incubated with different peptide concentrations. A: Peptides P1a-c in mouse 4T1 cells. B: P1a-c in human MDA-MB231 cells. C: Peptides P1d-h in human MDA-MB231 cells.
4T1 and MDA-MB231 cells were grown in culture according to the suppliers’ guidelines, and cells were detached by using trypsin/EDTA (PAN, diluted 1:2 with PBS). Resuspended cells in complete culture medium were centrifuged and washed once with washing buffer [HEPES (pH 7.3, 10 mM) in NaCl (0.9 %)] at 4°C and resuspended (2x10^6 cells mL-1) in peptide blocking buffer (PBB): HEPES (pH 7.3, 10 mM) in NaCl (0.9%) + KCl (5 mM), BSA (3%) + FCS (5 %) + MnCl2 (4 mM). Peptide samples were prepared at twice the final concentration in PBB and added to the cells to give final peptide concentrations of 1 nM - 3 µM. Cells (1x105 per 50 µL) were aliquoted into FACS tubes and incubated for 10 min on ice before addition of the peptide samples (50 µL). […]
PerCP-Cy5.5 (100 µL, Beckton Dickinson, 0.5 mg mL-1) in PBB. […] Cells were kept on ice until analysis with a FACS Canto instrument and 10000 events/sample were recorded. Data were evaluated with Flowing software. Gating was performed on single and live cells, and histograms of PerCP–Cy5.5 fluorescence were plotted. Kd values were calculated by fitting the data to a one-site specific binding model [Y=BmaxVX/(Kd+X)] by using GraphPad Prism, and errors represent the standard error of the fit.

[1] = Figure 2, integrin α3β1, flow cytometry binding, read-out: Kd

T1 sequence (P26006 33-872 limits assumed): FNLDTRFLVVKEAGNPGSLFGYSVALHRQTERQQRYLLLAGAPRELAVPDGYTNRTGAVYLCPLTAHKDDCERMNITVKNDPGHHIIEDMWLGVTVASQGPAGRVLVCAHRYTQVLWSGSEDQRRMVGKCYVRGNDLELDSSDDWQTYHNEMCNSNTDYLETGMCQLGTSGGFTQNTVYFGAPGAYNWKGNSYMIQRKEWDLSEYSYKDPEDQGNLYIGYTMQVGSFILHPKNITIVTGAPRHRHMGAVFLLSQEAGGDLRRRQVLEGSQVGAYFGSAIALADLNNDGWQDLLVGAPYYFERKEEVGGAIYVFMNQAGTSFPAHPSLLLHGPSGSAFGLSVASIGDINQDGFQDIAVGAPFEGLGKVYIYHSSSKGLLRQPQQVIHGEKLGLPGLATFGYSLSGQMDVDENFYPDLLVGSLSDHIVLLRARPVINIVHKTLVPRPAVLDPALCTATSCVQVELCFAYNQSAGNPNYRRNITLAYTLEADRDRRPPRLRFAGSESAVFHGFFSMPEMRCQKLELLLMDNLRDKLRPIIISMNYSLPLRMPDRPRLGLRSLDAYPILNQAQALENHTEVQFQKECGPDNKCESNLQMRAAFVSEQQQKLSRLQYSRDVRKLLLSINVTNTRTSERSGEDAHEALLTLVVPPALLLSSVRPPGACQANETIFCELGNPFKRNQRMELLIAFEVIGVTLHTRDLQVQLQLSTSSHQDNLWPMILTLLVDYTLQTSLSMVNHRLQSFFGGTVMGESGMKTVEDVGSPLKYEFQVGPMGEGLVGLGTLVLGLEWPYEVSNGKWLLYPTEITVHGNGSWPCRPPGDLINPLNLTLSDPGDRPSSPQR
T1 sequence (P26006 878-1051 limits assumed): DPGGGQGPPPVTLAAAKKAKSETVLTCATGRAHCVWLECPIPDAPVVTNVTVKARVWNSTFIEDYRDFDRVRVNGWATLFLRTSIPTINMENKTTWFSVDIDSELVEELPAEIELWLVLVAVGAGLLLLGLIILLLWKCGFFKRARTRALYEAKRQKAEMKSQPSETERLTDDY
T1 sequence (P05556 21-798): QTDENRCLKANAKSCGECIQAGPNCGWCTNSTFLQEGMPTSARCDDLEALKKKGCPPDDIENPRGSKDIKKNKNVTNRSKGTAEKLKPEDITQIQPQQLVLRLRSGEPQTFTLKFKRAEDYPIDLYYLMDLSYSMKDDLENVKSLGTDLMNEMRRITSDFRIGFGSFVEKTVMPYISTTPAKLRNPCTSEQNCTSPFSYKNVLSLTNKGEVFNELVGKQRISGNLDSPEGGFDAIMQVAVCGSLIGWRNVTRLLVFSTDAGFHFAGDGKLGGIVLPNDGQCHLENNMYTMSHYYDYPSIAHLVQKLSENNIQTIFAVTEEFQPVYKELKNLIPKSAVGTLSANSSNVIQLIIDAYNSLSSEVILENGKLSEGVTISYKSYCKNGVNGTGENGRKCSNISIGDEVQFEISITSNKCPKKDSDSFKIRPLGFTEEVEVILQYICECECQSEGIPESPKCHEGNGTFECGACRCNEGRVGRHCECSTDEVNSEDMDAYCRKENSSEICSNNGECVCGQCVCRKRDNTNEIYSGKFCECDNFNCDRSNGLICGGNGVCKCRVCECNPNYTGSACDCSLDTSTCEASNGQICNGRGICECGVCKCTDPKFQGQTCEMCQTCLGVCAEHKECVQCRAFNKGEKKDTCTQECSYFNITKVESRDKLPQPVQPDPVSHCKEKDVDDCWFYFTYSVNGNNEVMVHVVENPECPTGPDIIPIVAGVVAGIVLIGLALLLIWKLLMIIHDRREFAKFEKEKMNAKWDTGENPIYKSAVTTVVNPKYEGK

Row | Structure (SMILES) | Kd (integrin α3β1 expressed on human MDA-MB231 cells, 30 min incubation on ice, streptavidin-PerCP-Cy5.5, flow cytometry, one-site specific binding fit, read-out: binding affinity) [µM] | Kd [1] [µM]
1 | NC(=O)C[C@@H]1NC(=O)[C@@H]2C[C@@H](O)CN2C(=O)CNC(=O)[C@H](Cc2ccc(O)c([N+](=O)[O-])c2)NC(=O)CNC(=O)[C@@H](CC(=O)O)NC(=O)[C@H](N)CSCC#CCSC[C@H](C(=O)NCC(=O)NCC(=O)N[C@@H](CCCCNC(=O)CCCC(=O)NCCCOCCOCCOCCCNC(=O)CCCC[C@@H]2SC[C@@H]3NC(=O)N[C@@H]32)C(N)=O)NC1=O [P1 d] (H-[dC][dD]G[Tyr(3-NO2)]G[Hyp]N[dC]GGK([Glutaryl-X1])-NH2; linker 1-8 via X3) | ~10 | –
2 | NC(=O)C[C@@H]1NC(=O)[C@@H]2C[C@@H](O)CN2C(=O)CNC(=O)[C@H](Cc2ccc(O)c([N+](=O)[O-])c2)NC(=O)CNC(=O)[C@@H](CC(=O)O)NC(=O)[C@H](N)CSSC[C@H](C(=O)NCC(=O)NCC(=O)N[C@@H](CCCCNC(=O)CCCC(=O)NCCCOCCOCCOCCCNC(=O)CCCC[C@@H]2SC[C@@H]3NC(=O)N[C@@H]32)C(N)=O)NC1=O [Peptide P2, reference compound] (H-[dC][dD]G[Tyr(3-NO2)]G[Hyp]N[dC]GGK([Glutaryl-X1])-NH2; disulfide 1-8) | – | 0.1
3 | NC(=O)C[C@@H]1NC(=O)[C@@H]2C[C@@H](O)CN2C(=O)CNC(=O)[C@H](Cc2ccc(O)c([N+](=O)[O-])c2)NC(=O)CNC(=O)[C@@H](CC(=O)O)NC(=O)[C@H](N)CSC/C=C\CSC[C@H](C(=O)NCC(=O)NCC(=O)N[C@@H](CCCCNC(=O)CCCC(=O)NCCCOCCOCCOCCCNC(=O)CCCC[C@@H]2SC[C@@H]3NC(=O)N[C@@H]32)C(N)=O)NC1=O [P1 a] (H-[dC][dD]G[Tyr(3-NO2)]G[Hyp]N[dC]GGK([Glutaryl-X1])-NH2; linker 1-8 via X2) | – | 13
